In patent publication US20100076015A1, “Aminopyridine Derivatives” (VANTIA LIMITED, priority 2008, published 2010) one finds IC50 data, which are given here for 22 compounds.

pIC50: −log10 of the molar value.

The assay deals with T1, Human KLK1 (Homo sapiens, UniProt P06870).
T1 construct: purchased Callbiochem (Calbiochem)
As to the kind of experiment: Determination of the IC50 for KLK1 (fluorogenic substrate H-DVal-Leu-Arg-AFC). The assay is classed as biochemical. The conditions noted are these: 37° C. In outline: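 hKLK1 + H-DVal-Leu-Arg-AFC, 37° C, varied cpd conc. Initial rate by A410 change → residual activity → IC50.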

By pIC50 is commonly meant −log10 of the IC50, conventionally taken in molar units. A low value points to a high IC50.

T1 sequence (P06870 25-262): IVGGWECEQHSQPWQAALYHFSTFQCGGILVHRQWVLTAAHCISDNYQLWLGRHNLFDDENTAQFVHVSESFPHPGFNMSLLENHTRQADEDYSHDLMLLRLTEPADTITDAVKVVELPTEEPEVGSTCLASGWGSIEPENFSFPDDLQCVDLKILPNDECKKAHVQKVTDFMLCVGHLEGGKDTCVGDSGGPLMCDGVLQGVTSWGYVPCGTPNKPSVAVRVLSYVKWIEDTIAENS

The compound `CN1CCC[C@@H]1C(=O)N[C@@H](Cc1ccc(C(C)(C)C)cc1)C(=O)NCc1ccc(N)nc1` [Example 102, (R)-1-Methyl-pyrrolidine-2-carboxylic acid [(S)-1-[(6-amino-pyridin-3-ylmethyl)-carbamoyl]-2-(4-tert-butyl-phenyl)-ethyl]-amide] showed a pIC50 of 6.59.

In the case of `CCC(C)[C@H](NC)C(=O)N[C@@H](Cc1ccc(F)c(F)c1)C(=O)NCc1ccc(N)nc1` (stereo partly drawn) [Example 82, (S)-3-Methyl-2-methylamino-pentanoic acid [(S)-1-[(6-amino-pyridin-3-ylmethyl)-carbamoyl]-2-(3,4-difluoro-phenyl)-ethyl]-amide], the pIC50 was 7.95.

Take `Cc1cc[nH]c1C(=O)N[C@@H](Cc1cccc(Cl)c1)C(=O)NCc1ccc(N)nc1` [Example 266, 3-Methyl-1H-pyrrole-2-carboxylic acid [(S)-1-[(6-amino-pyridin-3-ylmethyl)-carbamoyl]-2-(3-chloro-phenyl)-ethyl]-amide]: the pIC50 is 8.24.

`CCCN(C)[C@@H](C)C(=O)N[C@@H](CC1CCCCC1)C(=O)NCc1ccc(N)nc1` [Example 383, (S)—N-{(S)-1-[(6-Amino-pyridin-3-ylmethyl)-carbamoyl]-2-cyclohexyl-ethyl}-2-(methyl-propyl-amino)-propionamide] had a pIC50 of 7.34.

For `Cc1cc(C(=O)N[C@@H](Cc2ccc(F)cc2)C(=O)NCc2ccc(N)nc2)n(C)n1` [Example 291, 2,5-Dimethyl-2H-pyrazole-3-carboxylic acid [(S)-1-[(6-amino-pyridin-3-ylmethyl)-carbamoyl]-2-(4-fluoro-phenyl)-ethyl]-amide], the pIC50 is 6.78.

The compound `CN(CC(=O)N[C@@H](Cc1ccc(F)c(F)c1)C(=O)NCc1ccc(N)nc1)Cc1ccc(Cl)cc1` [Example 163, (S)—N-(6-Amino-pyridin-3-ylmethyl)-2-{2-[(4-chloro-benzyl)-methyl-amino]-acetylamino}-3-(3,4-difluoro-phenyl)-propionamide] had a pIC50 of 7.25.

Regarding `Cc1cccc(C[C@H](NC(=O)[C@H](C)N(C)C(C)C)C(=O)NCc2ccc(N)nc2)c1` [Example 414, (S)—N-{(S)-1-[(6-Amino-pyridin-3-ylmethyl)-carbamoyl]-2-m-tolyl-ethyl}-2-(isopropyl-methyl-amino)-propionamide], the pIC50 is 9.11.

Regarding `Nc1ccc(CNC(=O)[C@H](Cc2ccc(Cl)c(Cl)c2)NC(=O)[C@H]2CCCN2)cn1` [Example 55, (R)-Pyrrolidine-2-carboxylic acid [(S)-1-[(6-amino-pyridin-3-ylmethyl)-carbamoyl]-2-(3,4-dichloro-phenyl)-ethyl]-amide], the negative logarithm of the IC50 (pIC50) is 9.15.

For `CC(C)N(C)[C@@H](C)C(=O)N[C@@H](Cc1ccc(Cl)c(Cl)c1)C(=O)NCc1ccc(N)nc1` [Example 401, (S)—N-[(S)-1-[(6-Amino-pyridin-3-ylmethyl)-carbamoyl]-2-(3,4-dichloro-phenyl)-ethyl]-2-(isopropyl-methyl-amino)-propionamide], the pIC50 is 9.80.

Take `CC(C(=O)N[C@@H](Cc1cccc(C(F)(F)F)c1)C(=O)NCc1ccc(N)nc1)N1CCCCC1` (stereo partly drawn) [Example 419, N-[(S)-1-[(6-Amino-pyridin-3-ylmethyl)-carbamoyl]-2-(3-trifluoromethyl-phenyl)-ethyl]-2-piperidin-1-yl-propionamide]: the pIC50 was 7.79.

On to `CC(C)N(C)CC(=O)N[C@@H](Cc1ccc(F)c(F)c1)C(=O)NCc1ccc(N)nc1` [Example 156, (S)—N-(6-Amino-pyridin-3-ylmethyl)-3-(3,4-difluoro-phenyl)-2-[2-(isopropyl-methyl-amino)-acetylamino]-propionamide], for which the pIC50 is 7.09.

Regarding `Nc1ccc(CNC(=O)[C@H](Cc2ccc(F)c(F)c2)NC(=O)[C@H]2CCCN2Cc2cccc(Cl)c2)cn1` [Example 143, (R)-1-(3-Chloro-benzyl)-pyrrolidine-2-carboxylic acid [(S)-1-[(6-amino-pyridin-3-ylmethyl)-carbamoyl]-2-(3,4-difluoro-phenyl)-ethyl]-amide], the pIC50 was 7.68.

`Nc1ccc(CNC(=O)[C@H](Cc2c(F)c(F)c(F)c(F)c2F)NC(=O)c2cc3ccccc3[nH]2)cn1` [Example 329, 1H-Indole-2-carboxylic acid {(S)-1-[(6-amino-pyridin-3-ylmethyl)-carbamoyl]-2-pentafluorophenyl-ethyl}-amide]: the pIC50 is 6.52.

In the case of `CCN(C)[C@@H](C)C(=O)N[C@@H](Cc1cccc(C(F)(F)F)c1)C(=O)NCc1ccc(N)nc1` [Example 416, (S)—N-[(S)-1-[(6-Amino-pyridin-3-ylmethyl)-carbamoyl]-2-(3-trifluoromethyl-phenyl)-ethyl]-2-(ethyl-methyl-amino)-propionamide], the pIC50 is 8.21.

In the case of `Cc1nc(N)ccc1CNC(=O)[C@H](Cc1ccc(Cl)c(Cl)c1)NC(=O)[C@H](N)Cc1cccnc1` [Example 196, (R)-2-Amino-N-[(S)-1-[(6-amino-2-methyl-pyridin-3-ylmethyl)-carbamoyl]-2-(3,4-dichloro-phenyl)-ethyl]-3-pyridin-3-yl-propionamide], the pIC50 was 7.63.

Take `Cc1cc(C)c(C(=O)N[C@@H](Cc2ccccc2)C(=O)NCc2ccc(N)nc2)[nH]1` [Example 237, 3,5-Dimethyl-1H-pyrrole-2-carboxylic acid {(S)-1-[(6-amino-pyridin-3-ylmethyl)-carbamoyl]-2-phenyl-ethyl}-amide]: the pIC50 was 7.96.

On to `CC(C)N1CCC[C@@H]1C(=O)N[C@@H](Cc1ccncc1)C(=O)NCc1ccc(N)nc1` [Example 129, (R)-1-Isopropyl-pyrrolidine-2-carboxylic acid {(S)-1-[(6-amino-pyridin-3-ylmethyl)-carbamoyl]-2-pyridin-4-yl-ethyl}-amide], for which the pIC50 was 6.67.

The compound `CCN(C)C(C)C(=O)NC(Cc1cccc(Cl)c1)C(=O)NCc1ccc(N)nc1` [Example 408, (S)—N-[(S)-1-[6-Amino-pyridin-3-ylmethyl)-carbamoyl]-2-(3-chloro-phenyl)-ethyl]-2-(ethyl-methyl-amino)-propionamide] showed a pIC50 of 8.32.

Consider `Cc1c[nH]c(C(=O)N[C@@H](Cc2ccc(F)cc2)C(=O)NCc2ccc(N)nc2)c1` [Example 260, 4-Methyl-1H-pyrrole-2-carboxylic acid [(S)-1-[(6-amino-pyridin-3-ylmethyl)-carbamoyl]-2-(4-fluoro-phenyl)-ethyl]-amide], for which the pIC50 is 6.82.

Take `CCC(C)[C@@H](NC)C(=O)N[C@@H](Cc1cccc(Cl)c1)C(=O)NCc1ccc(N)nc1` (stereo partly drawn) [Example 45, (R)-3-Methyl-2-methylamino-pentanoic acid [(S)-1-[(6-amino-pyridin-3-ylmethyl)-carbamoyl]-2-(3-chloro-phenyl)-ethyl]-amide]: the pIC50 was 8.51.

As to `COc1ccc2[nH]c(C(=O)N[C@@H](Cc3cccc(F)c3)C(=O)NCc3ccc(N)nc3)cc2c1` [Example 312, 5-Methoxy-1H-indole-2-carboxylic acid [(S)-1-[(6-amino-pyridin-3-ylmethyl)-carbamoyl]-2-(3-fluoro-phenyl)-ethyl]-amide], the pIC50 is 7.42.

`Cc1nc(N)ccc1CNC(=O)[C@@H](Cc1cccc(Cl)c1)NC(=O)c1cc2ccccc2[nH]1` [Example 315, 1H-Indole-2-carboxylic acid [(R)-1-[(6-amino-2-methyl-pyridin-3-ylmethyl)-carbamoyl]-2-(3-chloro-phenyl)-ethyl]-amide] had a pIC50 of 7.16.
